Ki data for five compounds are collected here from patent US8580811B2 (Ligand Pharmaceuticals Incorporated, priority 2005, dated 2013).

The target of this experiment is T1, human AR (Homo sapiens, UniProt P10275).
T1 construct: expressed in transfected cells; host or cells: COS-1 cells
T1 sequence (P10275 1-920): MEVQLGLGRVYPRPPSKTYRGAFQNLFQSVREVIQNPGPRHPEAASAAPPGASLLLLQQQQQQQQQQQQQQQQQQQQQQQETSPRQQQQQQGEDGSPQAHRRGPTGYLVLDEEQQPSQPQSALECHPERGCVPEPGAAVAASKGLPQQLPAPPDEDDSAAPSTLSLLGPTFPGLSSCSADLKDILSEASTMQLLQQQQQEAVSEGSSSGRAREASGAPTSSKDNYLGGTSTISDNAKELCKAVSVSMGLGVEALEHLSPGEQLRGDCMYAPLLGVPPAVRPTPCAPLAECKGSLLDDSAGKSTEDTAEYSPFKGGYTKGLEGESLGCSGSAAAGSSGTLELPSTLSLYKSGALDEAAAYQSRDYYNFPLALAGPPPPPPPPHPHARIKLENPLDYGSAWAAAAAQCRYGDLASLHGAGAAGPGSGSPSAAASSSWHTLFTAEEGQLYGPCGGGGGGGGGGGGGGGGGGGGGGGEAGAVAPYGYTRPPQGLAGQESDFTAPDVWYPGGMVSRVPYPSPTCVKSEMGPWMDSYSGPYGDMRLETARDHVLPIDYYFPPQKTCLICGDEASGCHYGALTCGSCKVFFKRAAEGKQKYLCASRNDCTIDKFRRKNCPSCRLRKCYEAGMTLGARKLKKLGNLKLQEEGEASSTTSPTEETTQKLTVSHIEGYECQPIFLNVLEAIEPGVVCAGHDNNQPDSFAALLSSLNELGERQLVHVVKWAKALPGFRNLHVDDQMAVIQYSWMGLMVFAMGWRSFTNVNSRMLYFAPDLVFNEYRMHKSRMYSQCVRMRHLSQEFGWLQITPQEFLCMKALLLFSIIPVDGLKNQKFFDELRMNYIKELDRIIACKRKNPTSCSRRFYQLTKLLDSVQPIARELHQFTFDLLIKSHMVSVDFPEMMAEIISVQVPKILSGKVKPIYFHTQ
Description: IR Binding Assay: whole cell competitive binding of test compounds against 3H-DHT in COS-1 cells transfected with pRShAR. In outline: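 COS-1 cells transfected with pRShAR plus β-Gal reporter, serum-starved 24 h, then exposed to 1 nM ³H-DHT with compounds at 10^−10 to 10^−6 M for 3 h at 37 °C. Bound ³H-DHT counted in lysates, normalized to β-Gal. IC50 from log-logit plot; Ki via Cheng-Prusoff using Kd from Scatchard saturation analysis.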

Compound `Cc1c(C)n(CC(O)CCl)c2ccc3[nH]c(=O)cc(C(F)(F)F)c3c12` (centres unmarked) [Compound 294, 3-(3-chloro-2-hydroxypropyl)-1,2-dimethyl-9-trifluoromethyl-3,6-dihydro-pyrrolo[3,2-f]-quinolin-7-one] had a Ki of under 5 nM.
Turning to `Cc1c(C)n(C[C@H](O)CO)c2ccc3[nH]c(=O)cc(C(F)(F)F)c3c12` [Compound 295, (S)-3-(2,3-dihydroxypropyl)-1,2-dimethyl-9-trifluoromethyl-3,6-dihydro-pyrrolo[3,2-f]-quinolin-7-one], the Ki is over 10 nM.
`Cc1c(C)n(C[C@@H](O)CO)c2ccc3[nH]c(=O)cc(C(F)(F)F)c3c12` [Compound 296, (R)-3-(2,3-dihydroxypropyl)-1,2-dimethyl-9-trifluoromethyl-3,6-dihydro-pyrrolo[3,2-f]-quinolin-7-one]: the Ki was over 10 nM.
Then `CCc1c(C)c2c3c(Cl)cc(=O)[nH]c3ccc2n1CC(O)CO` (centres unmarked) [Compound 297, 9-Chloro-3-(2,3-dihydroxypropyl)-2-ethyl-1-methyl-3,6-dihydro-pyrrolo[3,2-f]-quinolin-7-one], with over 10 nM; and `Cc1c(C)n(CCOCCOCCO)c2ccc3[nH]c(=O)cc(C(F)(F)F)c3c12` [Compound 298, 3-{2-[2-(2-Hydroxy-ethoxy)-ethoxy]-ethyl}-1,2-dimethyl-9-trifluoromethyl-3,6-dihydro-pyrrolo[3,2-f]quinolin-7-one], with over 10 nM.

For orientation: Ki means a dissociation constant, usually derived from enzyme kinetics or from competition with a known ligand.
